In the supplement of paper PMC10307832:

Columns and labels:
Experiment in all cases: relative viability (nuclei count vs DMSO), 5 days (fraction); higher = more cells survive
[1] = compound: CC1CC(=O)N(C2=CN=C(N=C2N1C3CCCC3)NC4=C(C=C(C=C4)C(=O)NC5CCN(CC5)C)OC)C [NPK76-II-72-1] + CC(C)C[C@H](NC(=O)[C@H](Cc1ccccc1)NC(=O)c1cnccn1)B(O)O [Bortezomib] (partner 0.002 µM)
How it was run: (§1)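 A single step with final 0.05% Triton X-100, 1% formaldehyde and 1 ug/ml Hoechst fixed the cells and stained nuclei 5 days after treatment. Lung cancer cell lines in 1536-well plates had been treated by pin tool the day after seeding with one drug alone or a fixed anchor-drug dose plus five library-drug doses (not always all listed) in √10 steps, and nuclei were counted on 4× images. Relative viability is the ratio of nuclei in treated wells to nuclei in vehicle wells, taken as the median of duplicate plates.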

[2] = compound: CC1CC(=O)N(C2=CN=C(N=C2N1C3CCCC3)NC4=C(C=C(C=C4)C(=O)NC5CCN(CC5)C)OC)C [NPK76-II-72-1] + O=C(CCCCCCC(=O)Nc1ccccc1)NO [Vorinostat] (partner 1 µM)
How it was run: as §1

BI-2536 + Phenformin = compound: CC[C@@H]1C(=O)N(C)c2cnc(Nc3ccc(C(=O)NC4CCN(C)CC4)cc3OC)nc2N1C1CCCC1 [BI-2536] + N=C(N)NC(=N)NCCc1ccccc1 [Phenformin] (partner 250 µM)
How it was run: as §1

BI-2536 + AZD7762 = compound: CC[C@@H]1C(=O)N(C)c2cnc(Nc3ccc(C(=O)NC4CCN(C)CC4)cc3OC)nc2N1C1CCCC1 [BI-2536] + NC(=O)Nc1cc(-c2cccc(F)c2)sc1C(=O)N[C@H]1CCCNC1 [AZD7762] (partner 0.2 µM)
How it was run: as §1

Cell Line: HCC-44
- relative viability ([1]; first compound 0.01 µM): 0.836
- relative viability ([1]; first compound 0.03162 µM): 0.877
- relative viability ([1]; first compound 0.1 µM): 0.87
- relative viability ([1]; first compound 0.3162 µM): 0.843
- relative viability ([1]; first compound 1 µM): 1.03
- relative viability ([2]; first compound 0.01 µM): 1.08
- relative viability ([2]; first compound 0.03162 µM): 1.22
- relative viability ([2]; first compound 0.1 µM): 1.11
- relative viability ([2]; first compound 0.3162 µM): 1.09
- relative viability ([2]; first compound 1 µM): 1.1
- relative viability (BI-2536 + Phenformin; first compound 0.01 µM): 0.184
- relative viability (BI-2536 + Phenformin; first compound 0.03162 µM): 0.242
- relative viability (BI-2536 + Phenformin; first compound 0.1 µM): 0.0815
- relative viability (BI-2536 + Phenformin; first compound 0.3162 µM): 0.1
- relative viability (BI-2536 + Phenformin; first compound 1 µM): 0.0914
- relative viability (BI-2536 + AZD7762; first compound 0.01 µM): 1.08
- relative viability (BI-2536 + AZD7762; first compound 0.03162 µM): 1.06
- relative viability (BI-2536 + AZD7762; first compound 0.1 µM): 0.978
- relative viability (BI-2536 + AZD7762; first compound 0.3162 µM): 0.655
- relative viability (BI-2536 + AZD7762; first compound 1 µM): 0.361

Cell Line: HCC-827
- relative viability ([1]; first compound 0.01 µM): 0.975
- relative viability ([1]; first compound 0.03162 µM): 1.11
- relative viability ([1]; first compound 0.1 µM): 1.05
- relative viability ([1]; first compound 0.3162 µM): 0.956
- relative viability ([1]; first compound 1 µM): 1.29
- relative viability ([2]; first compound 0.01 µM): 0.825
- relative viability ([2]; first compound 0.03162 µM): 0.9
- relative viability ([2]; first compound 0.1 µM): 0.831
- relative viability ([2]; first compound 0.3162 µM): 0.817
- relative viability ([2]; first compound 1 µM): 0.942
- relative viability (BI-2536 + Phenformin; first compound 0.01 µM): 0.421
- relative viability (BI-2536 + Phenformin; first compound 0.03162 µM): 0.377
- relative viability (BI-2536 + Phenformin; first compound 0.1 µM): 0.43
- relative viability (BI-2536 + Phenformin; first compound 0.3162 µM): 0.241
- relative viability (BI-2536 + Phenformin; first compound 1 µM): 0.157
- relative viability (BI-2536 + AZD7762; first compound 0.01 µM): 0.234
- relative viability (BI-2536 + AZD7762; first compound 0.03162 µM): 0.217
- relative viability (BI-2536 + AZD7762; first compound 0.1 µM): 0.186
- relative viability (BI-2536 + AZD7762; first compound 0.3162 µM): 0.182
- relative viability (BI-2536 + AZD7762; first compound 1 µM): 0.14

Cell Line: NCI-H1623
- relative viability (BI-2536 + Phenformin; first compound 0.01 µM): 0.564
- relative viability (BI-2536 + Phenformin; first compound 0.03162 µM): 0.54
- relative viability (BI-2536 + Phenformin; first compound 0.1 µM): 0.556
- relative viability (BI-2536 + Phenformin; first compound 0.3162 µM): 0.445
- relative viability (BI-2536 + Phenformin; first compound 1 µM): 0.588

Cell Line: NCI-H2347
- relative viability ([1]; first compound 0.01 µM): 0.827
- relative viability ([1]; first compound 0.03162 µM): 1.24
- relative viability ([1]; first compound 0.1 µM): 0.697
- relative viability ([1]; first compound 0.3162 µM): 0.756
- relative viability ([1]; first compound 1 µM): 1.01
- relative viability ([2]; first compound 0.01 µM): 0.744
- relative viability ([2]; first compound 0.03162 µM): 0.588
- relative viability ([2]; first compound 0.1 µM): 0.656
- relative viability ([2]; first compound 0.3162 µM): 0.641
- relative viability ([2]; first compound 1 µM): 0.603
- relative viability (BI-2536 + Phenformin; first compound 0.03162 µM): 0.28
- relative viability (BI-2536 + Phenformin; first compound 0.1 µM): 0.382
- relative viability (BI-2536 + Phenformin; first compound 0.3162 µM): 0.276
- relative viability (BI-2536 + Phenformin; first compound 1 µM): 0.211
- relative viability (BI-2536 + AZD7762; first compound 0.01 µM): 0.647
- relative viability (BI-2536 + AZD7762; first compound 0.03162 µM): 0.643
- relative viability (BI-2536 + AZD7762; first compound 0.1 µM): 0.73
- relative viability (BI-2536 + AZD7762; first compound 0.3162 µM): 0.545
- relative viability (BI-2536 + AZD7762; first compound 1 µM): 0.325

Cell Line: PC-14
- relative viability ([1]; first compound 0.01 µM): 0.809
- relative viability ([1]; first compound 0.03162 µM): 0.849
- relative viability ([1]; first compound 0.1 µM): 0.892
- relative viability ([1]; first compound 0.3162 µM): 0.839
- relative viability ([1]; first compound 1 µM): 1.08
- relative viability ([2]; first compound 0.01 µM): 0.717
- relative viability ([2]; first compound 0.03162 µM): 0.73
- relative viability ([2]; first compound 0.1 µM): 0.684
- relative viability ([2]; first compound 0.3162 µM): 0.698
- relative viability ([2]; first compound 1 µM): 0.807
- relative viability (BI-2536 + Phenformin; first compound 0.01 µM): 0.651
- relative viability (BI-2536 + Phenformin; first compound 0.03162 µM): 0.551
- relative viability (BI-2536 + Phenformin; first compound 0.1 µM): 0.224
- relative viability (BI-2536 + Phenformin; first compound 0.3162 µM): 0.0459
- relative viability (BI-2536 + Phenformin; first compound 1 µM): 0.0271
- relative viability (BI-2536 + AZD7762; first compound 0.01 µM): 0.41
- relative viability (BI-2536 + AZD7762; first compound 0.03162 µM): 0.395
- relative viability (BI-2536 + AZD7762; first compound 0.1 µM): 0.32
- relative viability (BI-2536 + AZD7762; first compound 0.3162 µM): 0.0493
- relative viability (BI-2536 + AZD7762; first compound 1 µM): 0.0531

Cell Line: NCI-H1651
- relative viability ([1]; first compound 0.01 µM): 0.95
- relative viability ([1]; first compound 0.03162 µM): 0.954
- relative viability ([1]; first compound 0.1 µM): 0.903
- relative viability ([1]; first compound 0.3162 µM): 0.9
- relative viability ([1]; first compound 1 µM): 0.991
- relative viability ([2]; first compound 0.01 µM): 0.57
- relative viability ([2]; first compound 0.03162 µM): 0.565
- relative viability ([2]; first compound 0.1 µM): 0.634
- relative viability ([2]; first compound 0.3162 µM): 0.557
- relative viability ([2]; first compound 1 µM): 0.607
- relative viability (BI-2536 + Phenformin; first compound 0.01 µM): 0.296
- relative viability (BI-2536 + Phenformin; first compound 0.03162 µM): 0.197
- relative viability (BI-2536 + Phenformin; first compound 0.1 µM): 0.136
- relative viability (BI-2536 + Phenformin; first compound 0.3162 µM): 0.104
- relative viability (BI-2536 + Phenformin; first compound 1 µM): 0.102
- relative viability (BI-2536 + AZD7762; first compound 0.01 µM): 0.476
- relative viability (BI-2536 + AZD7762; first compound 0.03162 µM): 0.543
- relative viability (BI-2536 + AZD7762; first compound 0.1 µM): 0.392
- relative viability (BI-2536 + AZD7762; first compound 0.3162 µM): 0.261
- relative viability (BI-2536 + AZD7762; first compound 1 µM): 0.0882

Cell Line: HARA
- relative viability ([1]; first compound 0.01 µM): 1.08
- relative viability ([1]; first compound 0.03162 µM): 1.2
- relative viability ([1]; first compound 0.1 µM): 1.04
- relative viability ([1]; first compound 0.3162 µM): 1.12
- relative viability ([1]; first compound 1 µM): 1.22
- relative viability ([2]; first compound 0.01 µM): 0.493
- relative viability ([2]; first compound 0.03162 µM): 0.668
- relative viability ([2]; first compound 0.1 µM): 0.564
- relative viability ([2]; first compound 0.3162 µM): 0.485
- relative viability ([2]; first compound 1 µM): 0.603
- relative viability (BI-2536 + Phenformin; first compound 0.01 µM): 0.511
- relative viability (BI-2536 + Phenformin; first compound 0.03162 µM): 0.55
- relative viability (BI-2536 + Phenformin; first compound 0.1 µM): 0.376
- relative viability (BI-2536 + Phenformin; first compound 0.3162 µM): 0.049
- relative viability (BI-2536 + Phenformin; first compound 1 µM): 0.0462
- relative viability (BI-2536 + AZD7762; first compound 0.01 µM): 0.325
- relative viability (BI-2536 + AZD7762; first compound 0.03162 µM): 0.424
- relative viability (BI-2536 + AZD7762; first compound 0.1 µM): 0.167
- relative viability (BI-2536 + AZD7762; first compound 0.3162 µM): 0.158
- relative viability (BI-2536 + AZD7762; first compound 1 µM): 0.137
